Experimental data published in US9850225B2, “Compounds useful as immunomodulators” (BRISTOL-MYERS SQUIBB COMPANY, priority 2014, dated 2017).

molecular target: PD-1/PD-L1 interaction (PD-1-Ig / PD-L1-His) (Homo sapiens (Human), UniProt Q9NZQ7); test: PD-1/PD-L1 Homogenous Time-Resolved Fluorescence (HTRF) binding assay; conditions: PD-1/PD-L1 HTRF binding assay; numeric value; read-out: Range or IC50
How it was run: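 HTRF detection used 1 nM europium-cryptate anti-Ig and 20 nM APC anti-His. Compounds first saw 10 nM PD-L1-His for 15 min, and 20 nM PD-1-Ig was then added for another 15 min. Buffer was dPBS plus 0.1% BSA and 0.05% Tween-20. All concentrations are final.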

Chain of PD-1/PD-L1 interaction (PD-1-Ig / PD-L1-His) (Q9NZQ7 other isoform, or with tags, fused parts or gaps): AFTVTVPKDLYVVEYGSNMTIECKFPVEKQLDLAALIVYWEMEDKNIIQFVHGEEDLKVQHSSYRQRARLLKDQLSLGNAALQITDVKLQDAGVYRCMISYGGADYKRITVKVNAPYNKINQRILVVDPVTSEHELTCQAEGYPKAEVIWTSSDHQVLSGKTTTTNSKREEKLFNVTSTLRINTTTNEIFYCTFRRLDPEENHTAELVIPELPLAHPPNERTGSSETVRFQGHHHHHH

Row | IC50 [nM] | SMILES
1 | 50 | Cc1c(COc2cc(OCc3cncc(C#N)c3)c(CN[C@@H](Cc3cccnc3)C(=O)O)cc2Cl)cccc1-c1ccc2c(c1)OCCO2 [Example 2010, (S)-2-((5-chloro-2-((5-cyanopyridin-3-yl)methoxy)-4-((3-(2,3-dihydrobenzo[b][1,4]dioxin-6-yl)-2-methylbenzyl)oxy)benzyl)amino)-3-(pyridin-3-yl)propanoic acid]
2 | 80 | Cc1c(COc2cc(OCc3cncc(S(C)(=O)=O)c3)c(CO)cc2Cl)cccc1-c1ccc2c(c1)OCCO2 [Example 3013, (5-chloro-4-{[3-(2,3-dihydro-1,4-benzodioxin-6-yl)-2-methylphenyl]methoxy}-2-[(5-methanesulfonylpyridin-3-yl)methoxy]phenyl)methanol]

same assay, conditions: PD-1/PD-L1 HTRF binding assay; value given as range class; read-out: Range or IC50

Row | IC50 [nM] | SMILES
3 | 0.6 to 10 | Cc1c(COc2cc(OCc3cncc(C#N)c3)c(CN[C@@H](CCCN)C(=O)O)cc2Cl)cccc1-c1ccc2c(c1)OCCO2 [Example 2003, (S)-5-amino-2-((5-chloro-2-((5-cyanopyridin-3-yl)methoxy)-4-((3-(2,3-dihydrobenzo[b][1,4]dioxin-6-yl)-2-methylbenzyl)oxy)benzyl)amino)pentanoic acid]
4 | 0.6 to 10 | Cc1c(COc2cc(OCc3cncc(C#N)c3)c(CN[C@@H](CCCCN)C(=O)O)cc2Cl)cccc1-c1ccc2c(c1)OCCO2 [Example 2004, (S)-6-amino-2-((5-chloro-2-((5-cyanopyridin-3-yl)methoxy)-4-((3-(2,3-dihydrobenzo[b][1,4]dioxin-6-yl)-2-methylbenzyl)oxy)benzyl)amino)hexanoic acid]
5 | 10 to 100 | Cc1c(COc2cc(OCc3cncc(C#N)c3)c(CN[C@@H](CCN)C(=O)O)cc2Cl)cccc1-c1ccc2c(c1)OCCO2 [Example 2005, (S)-4-amino-2-((5-chloro-2-((5-cyanopyridin-3-yl)methoxy)-4-((3-(2,3-dihydrobenzo[b][1,4]dioxin-6-yl)-2-methylbenzyl)oxy)benzyl)amino)butanoic acid]
6 | 0.6 to 10 | Cc1c(COc2cc(OCc3cncc(C#N)c3)c(CN[C@@H](CCCCN(C)C)C(=O)O)cc2Cl)cccc1-c1ccc2c(c1)OCCO2 [Example 2006, (S)-2-((5-chloro-2-((5-cyanopyridin-3-yl)methoxy)-4-((3-(2,3-dihydrobenzo[b][1,4]dioxin-6-yl)-2-methylbenzyl)oxy)benzyl)amino)-6-(dimethylamino)hexanoic acid]
7 | 0.6 to 10 | Cc1c(COc2cc(OCc3cncc(C#N)c3)c(CN3C[C@@H](O)CC[C@H]3C(=O)O)cc2Cl)cccc1-c1ccc2c(c1)OCCO2 [Example 2007, (2S,5S)-1-(5-chloro-2-((5-cyanopyridin-3-yl)methoxy)-4-((3-(2,3-dihydrobenzo[b][1,4]dioxin-6-yl)-2-methylbenzyl)oxy)benzyl)-5-hydroxypiperidine-2-carboxylic acid]
8 | 0.6 to 10 | Cc1c(COc2cc(OCc3cncc(C#N)c3)c(CN3CC[C@@H](O)C[C@H]3C(=O)O)cc2Cl)cccc1-c1ccc2c(c1)OCCO2 [Example 2008, (2S,4R)-1-(5-chloro-2-((5-cyanopyridin-3-yl)methoxy)-4-((3-(2,3-dihydrobenzo[b][1,4]dioxin-6-yl)-2-methylbenzyl)oxy)benzyl)-4-hydroxypiperidine-2-carboxylic acid]
9 | 0.6 to 10 | Cc1c(COc2cc(OCc3cncc(C#N)c3)c(CN[C@@H](Cc3ccccn3)C(=O)O)cc2Cl)cccc1-c1ccc2c(c1)OCCO2 [Example 2009, (S)-2-((5-chloro-2-((5-cyanopyridin-3-yl)methoxy)-4-((3-(2,3-dihydrobenzo[b][1,4]dioxin-6-yl)-2-methylbenzyl)oxy)benzyl)amino)-3-(pyridin-2-yl)propanoic acid]
10 | 10 to 100 | Cc1c(COc2cc(OCc3cncc(C#N)c3)c(CN[C@@H](Cc3ccncc3)C(=O)O)cc2Cl)cccc1-c1ccc2c(c1)OCCO2 [Example 2011, (S)-2-((5-chloro-2-((5-cyanopyridin-3-yl)methoxy)-4-((3-(2,3-dihydrobenzo[b][1,4]dioxin-6-yl)-2-methylbenzyl)oxy)benzyl)amino)-3-(pyridin-4-yl)propanoic acid]
11 | 0.6 to 10 | Cc1c(COc2cc(OCc3cncc(C#N)c3)c(CN[C@@H](CCC(=O)O)C(=O)O)cc2Cl)cccc1-c1ccc2c(c1)OCCO2 [Example 2012, (S)-2-((5-chloro-2-((5-cyanopyridin-3-yl)methoxy)-4-((3-(2,3-dihydrobenzo[b][1,4]dioxin-6-yl)-2-methylbenzyl)oxy)benzyl)amino)pentanedioic acid]
12 | 0.6 to 10 | Cc1c(COc2cc(OCc3cncc(C#N)c3)c(CNCC(=O)O)cc2Cl)cccc1-c1ccc2c(c1)OCCO2 [Example 2013, 2-((5-chloro-2-((5-cyanopyridin-3-yl)methoxy)-4-((3-(2,3-dihydrobenzo[b][1,4]dioxin-6-yl)-2-methylbenzyl)oxy)benzyl)amino)acetic acid]
13 | 0.6 to 10 | Cc1c(COc2cc(OCc3cncc(C#N)c3)c(CN[C@H](CO)C(=O)O)cc2F)cccc1-c1ccc2c(c1)OCCO2 [Example 3000]
14 | 0.6 to 10 | Cc1c(COc2cc(OCc3cncc(C#N)c3)c(CN[C@](C)(CO)C(=O)O)cc2F)cccc1-c1ccc2c(c1)OCCO2 [Example 3001]
15 | 0.6 to 10 | Cc1c(COc2cc(OCc3cncc(C#N)c3)c(CN3CCCC[C@H]3C(=O)O)cc2F)cccc1-c1ccc2c(c1)OCCO2 [Example 3002]
16 | 0.6 to 10 | CCOC(=O)Nc1cncc(COc2cc(OCc3cccc(-c4ccc5c(c4)OCCO5)c3C)c(Cl)cc2C=O)c1 [Example 3008, ethyl (5-((4-chloro-5-((3-(2,3-dihydrobenzo[b][1,4]dioxin-6-yl)-2-methylbenzyl)oxy)-2-formylphenoxy)methyl)pyridin-3-yl)carbamate]
17 | 0.6 to 10 | CCOC(=O)Nc1cncc(COc2cc(OCc3cccc(-c4ccc5c(c4)OCCO5)c3C)c(Cl)cc2CN[C@@](C)(CO)C(=O)O)c1 [Example 3009, (S)-2-((5-chloro-4-((3-(2,3-dihydrobenzo[b][1,4]dioxin-6-yl)-2-methylbenzyl)oxy)-2-((5-((ethoxycarbonyl)amino)pyridin-3-yl)methoxy)benzyl)amino)-3-hydroxy-2-methylpropanoic acid]
18 | 100 to 20000 | CC(=O)Nc1cc(COc2cc(OCc3cccc(-c4ccc5c(c4)OCCO5)c3C)c(Cl)cc2C=O)ccn1 [Example 3010, N-(4-((4-chloro-5-((3-(2,3-dihydrobenzo[b][1,4]dioxin-6-yl)-2-methylbenzyl)oxy)-2-formylphenoxy)methyl)pyridin-2-yl)acetamide]
19 | 0.6 to 10 | CC(=O)Nc1cc(COc2cc(OCc3cccc(-c4ccc5c(c4)OCCO5)c3C)c(Cl)cc2CN[C@@](C)(CO)C(=O)O)ccn1 [Example 3011, (S)-2-((2-((2-acetamidopyridin-4-yl)methoxy)-5-chloro-4-((3-(2,3-dihydrobenzo[b][1,4]dioxin-6-yl)-2-methylbenzyl)oxy)benzyl)amino)-3-hydroxy-2-methylpropanoic acid]
20 | 0.6 to 10 | Cc1c(COc2cc(OCc3cncc(S(C)(=O)=O)c3)c(CN[C@@](C)(CO)C(=O)O)cc2Cl)cccc1-c1ccc2c(c1)OCCO2 [Example 3012, (S)-2-((5-chloro-4-((3-(2,3-dihydrobenzo[b][1,4]dioxin-6-yl)-2-methylbenzyl)oxy)-2-((5-(methylsulfonyl)pyridin-3-yl)methoxy)benzyl)amino)-3-hydroxy-2-methylpropanoic acid]
21 | 0.6 to 10 | COc1cc(COc2cc(OCc3cccc(-c4ccc5c(c4)OCCO5)c3C)c(Cl)cc2CN[C@@](C)(CO)C(=O)O)cc(Cl)n1 [Example 3014, (S)-2-((5-chloro-2-((2-chloro-6-methoxypyridin-4-yl)methoxy)-4-((3-(2,3-dihydrobenzo[b][1,4]dioxin-6-yl)-2-methylbenzyl)oxy)benzyl)amino)-3-hydroxy-2-methylpropanoic acid]
22 | 0.6 to 10 | COc1cc(COc2cc(OCc3cccc(-c4ccc5c(c4)OCCO5)c3C)c(Cl)cc2CN[C@@](C)(CO)C(=O)O)ccn1 [Example 3015, (2S)-2-{[(5-chloro-4-{[3-(2,3-dihydro-1,4-benzodioxin-6-yl)-2-methylphenyl]methoxy}-2-[(2-methoxypyridin-4-yl)methoxy]phenyl)methyl]amino}-3-hydroxy-2-methylpropanoic acid]
23 | 100 to 20000 | COc1cc(COc2cc(OCc3cccc(-c4ccc5c(c4)OCCO5)c3C)c(Cl)cc2CO)ccn1 [Example 3016, (5-chloro-4-{[3-(2,3-dihydro-1,4-benzodioxin-6-yl)-2-methylphenyl]methoxy}-2-[(2-methoxypyridin-4-yl)methoxy]phenyl)methanol]
24 | 10 to 100 | COc1cc(COc2cc(OCc3cccc(-c4ccc5c(c4)OCCO5)c3C)c(Cl)cc2CN2CCCC[C@H]2C(=O)O)ccn1 [Example 3017, (S)-1-(5-chloro-4-((3-(2,3-dihydrobenzo[b][1,4]dioxin-6-yl)-2-methylbenzyl)oxy)-2-((2-methoxypyridin-4-yl)methoxy)benzyl)piperidine-2-carboxylic acid]
25 | 0.6 to 10 | Cc1c(COc2cc(OCc3ccnc(C(=O)N(C)C)c3)c(CN[C@@](C)(CO)C(=O)O)cc2Cl)cccc1-c1ccc2c(c1)OCCO2 [Example 3018, (S)-2-((5-chloro-4-((3-(2,3-dihydrobenzo[b][1,4]dioxin-6-yl)-2-methylbenzyl)oxy)-2-((2-(dimethylcarbamoyl)pyridin-4-yl)methoxy)benzyl)amino)-3-hydroxy-2-methylpropanoic acid]
26 | 100 to 20000 | Cc1c(COc2cc(OCc3ccnc(C(=O)N(C)C)c3)c(CO)cc2Cl)cccc1-c1ccc2c(c1)OCCO2 [Example 3019, 4-(4-chloro-5-{[3-(2,3-dihydro-1,4-benzodioxin-6-yl)-2-methylphenyl]methoxy}-2-(hydroxymethyl)phenoxymethyl)-N,N-dimethylpyridine-2-carboxamide]
